Assay results: US20260345654A1, “2,8-DIHYDROXYQUINOLINE GLUCURONIDE DERIVATIVES WITH ENHANCED PROPERTIES FOR USE AS ANTICANCER, ANTIVIRAL, ANTIMICROBIAL, AND OTHER THERAPEUTIC APPLICATIONS” (priority 2023, published 2026)
Where two headings read alike, the source gives them in different places.

Columns and labels:
Complexation of copper = type: physicochemical
[1] = test system: ulcerative lesion to mid forehead; assay: Case study, topical W1469, ulcerative lesion (Individual 3); type: in vivo, human; conditions: Individual 3, twice daily, after one week
Procedure: (§1) Topical gel containing 0.5 mg/ml W1469 in proprietary aqueous alcohol gel, applied initially once daily using a suitable topical applicator.
(§2) In general, the Treatment/Patient protocol used for the patient testing was as follows: • 1. Photograph the application site prior to starting the protocol. Note any changes in lesion size, color, etc. of treatment area. • 2. Remove a loaded syringe from the freezer, dry ice or refrigerator and allow to gradually warm to room temperature. • 3. Photograph the syringe each time prior to application. Note the color of the gel contained in the syringe. • 4. Lightly clean the skin surface with alcohol wipe. • 5. […] Let the liquid from the gel absorb into the site without disturbing. Apply once a day at the same time. • 6. Re-cap the syringe and store in the refrigerator until completely used. • 7. Repeat 1-6 each daily during application period. It is noted in this protocol that photographing the syringe used with each application period accomplishes two things.
Physician administered, variable treatment protocol, drug concentrations and vehicle carrier. A person with ulcerative lesion to mid forehead approximately 3 mm×4 mm. […]. Non painful and without exudate. Therapy applied on a twice daily dosing schedule.

BT-549 cells = assay: In vitro anti-proliferation (CellTiter-Glo, 72 hr), BT-549; type: cell-based
Procedure: (§3) Commercially available 8HQ and freshly synthesized G2-8HQ were prepared for in vitro anti-proliferative studies against the following cell lines with and without the presence of 10 μM Cu(+2): (1) A549: […]; (2) BT-549: epithelial cells from ductal tumor; (3) DU-145: human prostate cancer; (4) PANC-1: pancreatic cancer; (5) SU.86.86: a new adoptive pancreatic cell for immunotherapy studies; (6) RL: non-Hodgkin's lymphoma; (7) LnCAP, Prostate cancer cell line; (8) A431, a squamous cell carcinoma line; and (9) UACC-62 a malignant melanoma cell line.
(§4) With regard to the study protocol used, the objective was to conduct a study of the cytotoxicity of W1469 against several cancer cell lines. In the study protocol, preparations for the A549 (Lung) cell line screen are given as an example. The following materials were used: (1) FBS (2) RPMI-1640 medium supplemented with 10% FBS:’ and (3) A549 Cells. The four samples tested are referred to as Items 1-4 below and were placed at 4 °C upon arrival. These four samples were as follows: • Item 1: Tube A (W1469) (500 uM when FBS added) • Item 2: Tube B (W1469g) (1000 uM when FBS added) • Item 3: Tube C (W1469) • Item 4: Tube D (W1469g)
(§5) Add 50 μL of above 2× stocks to appropriate wells to expose appropriate cells to the final dilutions of samples. Add 50 μL media to media and cell control wells and 50 μL media mix to vehicle control wells. Cells are exposed for 72 hr. Following a 72 hr exposure to Sample, perform a CTG assay on all remaining plates.
(§6) At the end of the 72 hr exposure period, remove plates for CellTiter-Glo assay from 37 °C, 5% CO2 incubator and place on the bench at room temperature for 30 mins. Add 100 μL CellTiter-Glo reagent, mix for 2 mins, followed by a further 10 min incubation at room temperature. Record luminescence. Tables showing the resulting plate layouts are included below/

cancer cell lines = assay: Anti-proliferative activity against cancer cell lines (overall statements); type: cell-based
Procedure: as §3, §4, §5, §6

basal cell carcinoma = assay: Single patient clinical study, topical W1469, basal cell carcinoma; type: in vivo, human
Source text: • Indication: Basil Cell Carcinoma • Rationale: Basil Cell Carcinoma is the most common form of skin cancer with 3.6 Million cases diagnosed each year and rising. It is estimated that 80% of all newly diagnosed skin cancers are BCC. Although rarely fatal, it can be painful and disfiguring and, in some cases, become dangerously invasive. The most common forms of treatment include surgery, radiation treatment, immunotherapy, systemic and topical chemotherapy, and other variations including laser therapy. The currently approved topical treatments for BCC are usually only recommended for more superficial tumors and more extensive monitoring is required because they are generally not effective in destroying cancer cell deeper below the surface. A more complete description of treatment options and their relative effectiveness has been described by the American Cancer Society. […] And if necessary, on a continuing ongoing basis.
The examined treatment approach studied here falls in the category of a topical chemotherapeutic. W1469 is a novel small molecule anti-cancer drug candidate which contains a tumor targeting functional group and has been shown effective against a variety of cancers in vitro. (most recently including squamous cell carcinoma)
as §1, §2
• 1. Toleration/toxicity • 2. Application methodology • 3. Any visual indications of efficacy • 4. Patient feedback Study Duration: Varied case by case. Generally, two weeks to two months
A person with extensive basil cell carcinoma lesions on both sides of the face, forehead and ear. Note: the clinical study involving Individual 1, due to limitations in available material, at the time was performed with very low concentrations of W1469 and the patient was instructed to use only on the nose area and under the area of the left cheek. The treatment was thus self-administered. A photo of the individual before treatment is included in FIG. 23. Patient condition was monitored and photographed regularly during the treatment period.
Self-administered, variable treatment protocol, drug concentrations and vehicle carrier. […] The lesion was tender to palpation especially to the center and the area around the lesion was with hyperpigmentation. […] No necrotic or hyperkeratotic areas were noted. […] Therapy was reintroduced on a three times-daily dosing schedule and with ethanol-based carrier molecule. […] The centralized portion of the lesion slowly healed over the next 5-day period. Continued healing of the centralized portion of the lesion during the 5-day period status post central necrotic tissue extrusion was shown. During this period the lesion began to flatten, the area became pain free, and localized tissue became less erythematic. A bloody clot in central area resolved and crater size decreased.

[2] = Individual 1, three week period, topical
[3] = Individual 2, after first week of treatment

With `O=C(O)[C@H]1O[C@@H](Oc2ccc3cccc(O)c3n2)[C@H](O)[C@@H](O)[C@@H]1O` [G2-8HQ, 8-Hydroxy-2-quinolinyl beta-D-glucopyranosiduronic acid] the Complexes w/copper (Complexation of copper; comparison Table 5) was “Yes”, the copper complexation (Complexation of copper; water or PBS (at neutral pH), without suitable excipient) was “will not readily complex Cu^+2” and the “erythema, exudate, or hyperkeratosis” value [1] was “No erythema, exudate, or hyperkeratosis noted”. The ulcerative lesion [1] was “resolution of ulcerative lesion”, the cytotoxicity (BT-549 cells; 1 and 0.5 μM, presence of Cu^+2 ions, wide standard deviation) was “in some percentage of the screens all the cancer cells were killed at these concentrations” and the IC50 (BT-549 cells; +Cu (10 μM), 72 hr, G2-8HQ values based on MW of apo form (337), read-out: IC50) was 8.6 µM. For the same molecule, the IC50 (BT-549 cells; Homo sapiens, BT-549, 72 h, +Cu (10 μM), 72 hr, G2-8HQ values based on MW of apo form (337), read-out: IC50) was 5.6 µM, the IC50 (BT-549 cells; Homo sapiens, BT-549, 72 h, −Cu, 72 hr, read-out: IC50) was over 500 µM and the IC50 (BT-549 cells; Homo sapiens, BT-549, complexed with Cu, multiplied by 337/776=0.43, column 3 duplicate of column 2, read-out: IC50 (adjusted to MW of copper complex)) was 2.4 µM. For the same molecule, the IC50 (BT-549 cells; complexed with Cu, multiplied by 337/776=0.43, column 3 duplicate of column 2, listed as W1469, read-out: IC50 (adjusted to MW of copper complex)) was 3.7 µM, the cytotoxicity (cancer cell lines; absence of copper) was “absence of cytotoxicity (no measurable IC50 in standard drug concentration ranges)” and the anticancer activity (cancer cell lines; all cell lines tested) was “powerful anticancer activity against all cell lines tested”. The “Active w/o Cu (cancer)” value (cancer cell lines; comparison Table 5) was “No”, the IC50 (cancer cell lines; without copper, six of the nine carcinoma cell lines) was over 500 µM and the “Solubility of Cu Complex/aqueous” value (Solubility; comparison Table 5) was “excellent”. The solubility (Solubility; water / aqueous) was “highly aqueous soluble”, the solubility (Solubility; water or PBS (at neutral pH)) was “highly soluble” and the “patient's condition” value (basal cell carcinoma; [2]) was “significant amelioration of the patient's condition”. The “scarring or other disfigurement” value (basal cell carcinoma; [2]) was “did not result in scarring or other disfigurement”, the “patient's condition” value (basal cell carcinoma; Individual 2, after 7 days of treatment (FIG. 26)) was “significant amelioration of the patient's condition” and the hyperpigmentation (basal cell carcinoma; [3]) was “hyperpigmentation is markedly reduced”. For the same molecule, the lesion response (basal cell carcinoma; [3]) was “marked improvement in the lesion was obtained with almost complete resolution”, the pain (basal cell carcinoma; [3]) was “Area is pain free” and the recurrence (basal cell carcinoma; Individual 2, one month following the treatment) was “another lesion returned to the patient's right cheek”. The lesion hyperkeratosis (basal cell carcinoma; Individual 2, second lesion) was “marked reduction in lesion hyperkeratosis”, the centralized necrotic core (basal cell carcinoma; Individual 2, second lesion, after two days) was “the centralized necrotic core came out of the lesion” and the lesion size (basal cell carcinoma; Individual 2, second lesion, three times daily, ethanol-based carrier) was “lesion size markedly decreased”.
